Data on one molecule can be found in US20100048727A1, “PERFLUOROKETONE COMPOUNDS AND USES THEREOF” (priority 2007, published 2010).

Entries after “also recorded” stand apart in the source; their conditions may differ.

This assay has as its system spinal cord contusion injury (SCI) mice. Nature of the assay: Spinal cord contusion injury in mice: BMS locomotor recovery and histology. The class given is in vivo. The method, then: Spinal cord contusion and drug administration. All surgical procedures were approved by the McGill University Animal Care Committee and followed the guidelines of the Canadian Council on Animal Care. Adult (8-10 weeks old) female BALB/c (Charles River Canada), cPLA2 IVA^−/− and wild type littermates mice, were anesthetized with ketamine:xylazine:acepromazine (50:5:1 mg/kg). After performing a laminectomy at the 11th thoracic vertebrae, the exposed spinal cord was contused using the Infinite Horizons Impactor™ device (Precision Scientific Instrumentation, Lexington, Ky.). Moderate injuries were made using a force of 50 kDynes, and only animals that had tissue displacement ranged between 400-600 μm were used (Ghasemblou et al. (2005). Exp Neurol. 196(1): 9-17).
PLA2 inhibitor treatment. Mice were given daily intraperitoneal injections of 2 mM fluoroketone (iPLA2 inhibitor; FKGK11) in 200 μl (6.85 mg/kg), starting 1 h after contusion and for 14 days. The control group that also had SCI were treated daily with vehicle.
Functional assessment. Locomotor recovery was evaluated in an open-field test using the Basso Mouse Scale (BMS) (Basso D. M. et al., (2006). J Neurotrauma. 23(5): 635-59). The BMS analysis of hindlimb movements and coordination was carried out by two independent assessors and the consensus score taken. The final score is presented as mean±SEM.
Histology. Mice were perfused with 4% paraformaldehyde in 0.1M phosphate buffer (PB) at 1, 3, 7, 14 and 28 days post-lesion. 5 mm length of the spinal cord containing the lesion site was removed, cryoprotected with 30% sucrose in 0.1M PB, and cut in serial sections (16 μm thick). For double immunoflorescence, sections were incubated with antibodies against iPLA2 VIA (Cayman Chemical) combined with antibodies against Mac-1 (for macrophages/microglia, Serotec), GFAP (for astrocytes, Zymed Labs), CC1 (for oligodendrocytes, Calbiochem), NeuN (for neurons, 1:500, Chemicon) and SMI312 (for axons, Covance). Immunfluorescence labeling for 5-hydroxytryptamine (5-HT) (Sigma, Aldreich) was also performed to assess innervation of serotonergic axons caudal to the lesion. In addition, one series of serial sections of the spinal cord were stained with Luxol fast blue (LFB) histochemistry, which stains myelin, and another series stained with cresyl violet histochemistry to quantify neuronal loss.
Quantification of histological results. Histological quantification was performed from spinal cord sections harvested at 28 days post-lesion. Tissue sections were viewed with an Axioskop™ 2 Plus microscope (Zeiss) and images captured using a Qlmaging Retiga™ 1300 camera, and quantification done using BioQuant™ Nova Prime image analysis system (BioQuant Image Analysis Corp.). Tissue and myelin sparing was calculated by delineating the GFAP and LFB stained sections. Neuronal survival was assessed by counting the neuron profiles in the ventral horn of the spinal cord in tissue sections stained with cresyl violet. Assessment of serotonergic innervation was performed by calculating the area occupied by serotoninergic axons in the lateral funiculi and ventral horns of spinal cord sections taken at a distance of 1000 μm caudal to the lesion site.
Statistical analyses (spinal cord injury experiments, Examples 19-20). Data are shown as mean±s.e.m. RT-PCR and Western blot analyses were done using one-way ANOVA with post-hoc Dunnett's test. Statistical analyses of the functional and histological assessments were performed using two-way repeated measures ANOVA with post-hoc Tukey's test for multiple comparisons. Differences were considered significant at p<0.05.

As for `O=C(CCCCc1ccccc1)C(F)(F)C(F)(F)F` [FKGK11, 1,1,1,2,2-Pentafluoro-7-phenyl-3-heptanone], where the note is “6.85 mg/kg i.p. daily for 14 days from 1 h after contusion, vs vehicle”, the “main BMS scores (locomotor recovery)” value was “did not reach statistical significance; also recorded: No significant differences”. For the same molecule, the “BMS subscores (fine locomotor coordination and control)” value (6.85 mg/kg i.p. daily for 14 days, 28 days after SCI, vs vehicle) was “significant improvement; also recorded: significantly better BMS subscores”. Moreover, the “sparing of serotonergic fibers in the lateral funiculi” value (1000 μm caudal to the epicenter, 28 days after SCI) is reported as “significantly greater sparing of serotonergic fibers”. The “increase in serotonergic (5-HT) fibers in the lateral white matter” value (1000 μm caudal to the epicenter, 28 days after SCI, compared to vehicle-treated SCI controls) is given as around 40%. The “neuronal survival in the ventral horn” value (28 days after SCI, vs vehicle) is given as “little if any effect; also recorded: No significant differences”. Moreover, the tissue sparing entry (epicenter and adjacent areas, 28 days after SCI, vs vehicle) is reported as “significantly greater tissue sparing; also recorded: greater amount of tissue sparing”. Under “regions near the epicenter, 28 days after SCI, vs vehicle”, the “myelin sparing (Luxol fast blue)” value was “significant enhancement of myelin sparing; also recorded: greater sparing of myelin”.
